Drawing on patent US20130303532A1, “IMIDAZOPYRAZINES FOR USE AS MPS-1 AND TKK INHIBITORS IN THE TREATMENT HYPERPROLIFERATIVE DISORDERS” (BAYER INTELLECTUAL PROPERTY GmbH, priority 2010, published 2013), this text covers IC50 for 27 molecules.

Molecules are shown by their SMILES.

The first test concerns the target T1, human kinase Mps-1 (Homo sapiens, UniProt P33981).
T1 construct: N-terminally GST-tagged human full length recombinant Mps-1 kinase; GST (N); purchased Invitrogen, Karslruhe, Germany PV4071
T1 sequence (P33981 1-857): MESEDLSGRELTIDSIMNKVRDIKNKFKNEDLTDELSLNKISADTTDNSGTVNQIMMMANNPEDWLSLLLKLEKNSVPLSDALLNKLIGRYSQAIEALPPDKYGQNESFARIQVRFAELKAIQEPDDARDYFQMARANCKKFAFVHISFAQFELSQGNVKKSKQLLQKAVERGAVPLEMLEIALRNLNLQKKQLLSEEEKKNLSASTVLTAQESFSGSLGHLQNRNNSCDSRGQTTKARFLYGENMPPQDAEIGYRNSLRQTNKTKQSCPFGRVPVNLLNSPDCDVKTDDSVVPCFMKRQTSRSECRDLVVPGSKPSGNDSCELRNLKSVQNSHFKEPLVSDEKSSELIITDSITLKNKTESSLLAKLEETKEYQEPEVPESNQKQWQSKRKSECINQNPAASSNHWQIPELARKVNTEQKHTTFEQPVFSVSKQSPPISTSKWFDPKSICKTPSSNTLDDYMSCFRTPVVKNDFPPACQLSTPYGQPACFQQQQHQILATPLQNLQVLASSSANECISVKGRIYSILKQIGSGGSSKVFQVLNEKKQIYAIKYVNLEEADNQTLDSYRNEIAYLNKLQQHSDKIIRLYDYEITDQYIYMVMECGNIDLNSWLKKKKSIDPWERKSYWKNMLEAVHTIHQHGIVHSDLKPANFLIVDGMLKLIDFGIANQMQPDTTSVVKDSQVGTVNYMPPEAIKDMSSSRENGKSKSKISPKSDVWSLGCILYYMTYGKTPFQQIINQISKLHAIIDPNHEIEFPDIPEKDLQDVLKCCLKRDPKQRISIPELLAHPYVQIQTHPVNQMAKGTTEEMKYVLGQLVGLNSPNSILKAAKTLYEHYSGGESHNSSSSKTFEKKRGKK
In words: Mps-1 kinase assay (TR-FRET). In kind it is biochemical. The conditions noted are these: Mps1 IC50 [nM], N-terminally GST-tagged human full length recombinant Mps-1; 10 μM ATP; 1 μM biotinylated peptide substrate; 60 min at 22° C. Background: TR-FRET usually uses a lanthanide donor and a delayed reading to cut background.
As a reminder, the IC50 is the midpoint of a concentration-inhibition curve. Consider `COc1cc(CNc2nccn3c(-c4ccc(C(=O)NC5CC5)cc4)cnc23)cc(OC)c1OC` [Example 7-13, N-cyclopropyl-4-{8-[(3,4,5-trimethoxybenzyl)amino]imi-dazo[1,2-a]pyrazin-3-yl}benzamide], for which the IC50 came to 429 nM. Same read-out and setting: in the case of `Cc1ccccc1CNc1nccn2c(-c3ccc(C(=O)NC4CC4)cc3)cnc12` [Example 7-15, N-cyclopropyl-4-{8-[(2-methylbenzyl)amino]imi-dazo[1,2-a]pyrazin-3-yl}benzamide] it was 88.8 nM; in that of `O=C(NC1CC1)c1ccc(-c2cnc3c(NCC(O)COc4ccccc4)nccn23)cc1` (stereo not drawn) [Example 7-17, N-cyclopropyl-4-{8-[(2-hydroxy-3-phenoxypropyl)amino]imi-dazo[1,2-a]pyrazin-3-yl}benzamide], 412 nM.

`CC(C)(C)CNc1nccn2c(-c3ccc(C(=O)NC4CC4)cc3)cnc12` [Example 7-20, N-cyclopropyl-4-{8-[(2,2-dimethylpropyl)amino]imi-dazo[1,2-a]pyrazin-3-yl}benzamide]: the IC50 was found to be 30.2 nM. The same measure, in the same setting: in the case of `Cc1ccc(CNc2nccn3c(-c4ccc(C(=O)NC5CC5)cc4)cnc23)cc1` [Example 7-22, N-cyclopropyl-4-{8-[(4-methylbenzyl)amino]imi-dazo[1,2-a]pyrazin-3-yl}benzamide] it was 21 nM. Consider `O=C(NC1CC1)c1ccc(-c2cnc3c(NCCCc4ccccc4)nccn23)cc1` [Example 7-24, N-cyclopropyl-4-{8-[(3-phenylpropyl)amino]imi-dazo[1,2-a]pyrazin-3-yl}benzamide], for which the IC50 stood at 90.1 nM. For the molecule `O=C(NC1CC1)c1ccc(-c2cnc3c(NCCCN4CCCC4=O)nccn23)cc1` [Example 7-28, N-cyclopropyl-4-(8-{[3-(2-oxopyrrolidin-1-yl)propyl]amino}imi-dazo[1,2-a]pyrazin-3-yl)benzamide], the IC50 came to 1270 nM. Consider `Cc1cccc(CNc2nccn3c(-c4ccc(C(=O)NC5CC5)cc4)cnc23)c1` [Example 7-29, N-cyclopropyl-4-{8-[(3-methylbenzyl)amino]imi-dazo[1,2-a]pyrazin-3-yl}benzamide], for which the concentration for half-maximal inhibition (IC50) is 100 nM. For `O=C(NC1CC1)c1ccc(-c2cnc3c(NCc4ccc(F)cc4)nccn23)cc1` [Example 7-31, N-cyclopropyl-4-{8-[(4-fluorobenzyl)amino]imi-dazo[1,2-a]pyrazin-3-yl}benzamide], the half-maximal inhibitory concentration (IC50) was 17.4 nM.

Regarding `NS(=O)(=O)CCNc1nccn2c(-c3ccc(C(=O)NC4CC4)cc3)cnc12` [Example 7-32, N-cyclopropyl-4-{8-[(2-sulfamoylethyl)amino]imi-dazo[1,2-a]pyrazin-3-yl}benzamide], the concentration for half-maximal inhibition (IC50) is 57.2 nM. For `O=C(NC1CC1)c1ccc(-c2cnc3c(NCc4cccc(F)c4)nccn23)cc1Cl` [Example 7-33, 2-chloro-N-cyclopropyl-4-{8-[(3-fluorobenzyl)amino]imi-dazo[1,2-a]pyrazin-3-yl}benzamide], the IC50 was 200 nM. Same read-out and setting: in the case of `COCCNc1nccn2c(-c3ccc(C(=O)NC4CC4)c(Cl)c3)cnc12` [Example 7-36, 2-chloro-N-cyclopropyl-4-{8-[(2-methoxyethyl)amino]imi-dazo[1,2-a]pyrazin-3-yl}benzamide] it was 593 nM.

Turning to `O=C(NC1CC1)c1ccc(-c2cnc3c(NCc4ccccc4F)nccn23)cc1Cl` [Example 7-37, 2-chloro-N-cyclopropyl-4-{8-[(2-fluorobenzyl)amino]imi-dazo[1,2-a]pyrazin-3-yl}benzamide], the IC50 amounted to 93.8 nM.

Turning to `O=C(NC1CC1)c1ccc(-c2cnc3c(NCc4ccc(F)cc4)nccn23)cc1Cl` [Example 7-38, 2-chloro-N-cyclopropyl-4-{8-[(4-fluorobenzyl)amino]imi-dazo[1,2-a]pyrazin-3-yl}benzamide], the IC50 turned out to be 112 nM. Take `O=C(NC1CC1)c1ccc(-c2cnc3c(NCCCCO)nccn23)cc1Cl` [Example 7-39, 2-chloro-N-cyclopropyl-4-{8-[(4-hydroxybutyl)amino]imi-dazo[1,2-a]pyrazin-3-yl}benzamide]: the IC50 came out at 239 nM. Regarding `O=C(NC1CC1)c1ccc(-c2cnc3c(NCCCO)nccn23)cc1Cl` [Example 7-43, 2-chloro-N-cyclopropyl-4-{8-[(3-hydroxypropyl)amino]imi-dazo[1,2-a]pyrazin-3-yl}benzamide], the IC50 was 430 nM.

Still in this test, the particulars now being: N-terminally GST-tagged human full length recombinant Mps-1; 10 μM ATP; 1 μM biotinylated peptide substrate; 60 min at 22° C.; read-out: Mps1 IC50.
For the molecule `CCNc1nccn2c(-c3ccc(C(=O)NC4CC4)cc3)cnc12` [Example 7-10, N-cyclopropyl-4-[8-(ethylamino)imidazo[1,2-a]pyrazin-3-yl]benzamide], the IC50 was found to be 115 nM.

Take `CC(=O)NCCNc1nccn2c(-c3ccc(C(=O)NC4CC4)cc3)cnc12` [Example 7-16, 4-(8-{[2-(acetylamino)ethyl]ami-no}imidazo[1,2-a]pyrazin-3-yl)-N-cyclopropylbenzamide]: the IC50 turned out to be 961 nM. `O=C(NC1CC1)c1ccc(-c2cnc3c(NCc4ccc5c(c4)OCO5)nccn23)cc1` [Example 7-18, 4-{8-[(1,3-benzodioxol-5-ylmethyl)amino]imidazo[1,2-a]pyrazin-3-yl}-N-cyclopropylbenzamide]: the IC50 amounted to 28.4 nM. For `O=C(NC1CC1)c1ccc(-c2cnc3c(NCCc4cccs4)nccn23)cc1` [Example 7-21, N-cyclopropyl-4-(8-{[2-(thiophen-2-yl)ethyl]ami-no}imidazo[1,2-a]pyrazin-3-yl)benzamide], the IC50 was 42.3 nM. For the molecule `O=C(NC1CC1)c1ccc(-c2cnc3c(NCCc4cccnc4)nccn23)cc1` [Example 7-23, N-cyclopropyl-4-(8-{[2-(pyridin-3-yl)ethyl]amino}imidazo[1,2-a]pyrazin-3-yl)benzamide], the IC50 came to 244 nM.

Take `NS(=O)(=O)c1ccc(CCNc2nccn3c(-c4ccc(C(=O)NC5CC5)cc4)cnc23)cc1` [Example 7-27, N-cyclopropyl-4-(8-{[2-(4-sulfamoylphenyl)ethyl]ami-no}imidazo[1,2-a]pyrazin-3-yl)benzamide]: the IC50 was found to be 97.6 nM. As to `O=C(NC1CC1)c1ccc(-c2cnc3c(NCC4CCCO4)nccn23)cc1Cl` (stereo not drawn) [Example 7-34, 2-chloro-N-cyclopropyl-4-{8-[(tetrahydrofuran-2-ylmethyl)amino]imidazo[1,2-a]pyrazin-3-yl}benzamide], the IC50 was found to be 211 nM. Same read-out and setting: in the case of `O=C(NC1CC1)c1ccc(-c2cnc3c(NCCCN4CCCC4=O)nccn23)cc1Cl` [Example 7-35, 2-chloro-N-cyclopropyl-4-(8-{[3-(2-oxopyrrolidin-1-yl)propyl]amino}imidazo[1,2-a]pyrazin-3-yl)benzamide] it was 1970 nM; in that of `O=C(NC1CC1)c1ccc(-c2cnc3c(NCc4ccccc4)nccn23)cc1Cl` [Example 7-40, 4-[8-(benzylamino)imidazo[1,2-a]pyrazin-3-yl]-2-chloro-N-cyclopropylbenzamide], 64.6 nM; in that of `CCNc1nccn2c(-c3ccc(C(=O)NC4CC4)c(Cl)c3)cnc12` [Example 7-42, 2-chloro-N-cyclopropyl-4-[8-(ethylamino)imidazo[1,2-a]pyrazin-3-yl]benzamide], 17000 nM. Take `CCCCNc1nccn2c(-c3ccc(C(=O)NC4CC4)c(Cl)c3)cnc12` [Example 7-44, 4-[8-(butylamino)imidazo[1,2-a]pyrazin-3-yl]-2-chloro-N-cyclopropylbenzamide]: the IC50 stood at 54.2 nM.
